Entries after “also recorded” stand apart in the source; their conditions may differ.
Legend:
[1] = cited from earlier work
cell cultures = settings: cited from earlier work
[2] = test system: Staphylococcus Aureus Cowan I; type: cell-based
Description: Light source: All the phototoxicity assays were performed with a home-built Xenon lamp with vertical emission providing 140 mW/cm^2 at the target level, using glass or a Cr2K2O7 liquid filter transferring light at […].
Bacterial culture: Lyophilized Staphylococcus Aureus Cowan I, kindly provided by Prof. Z. Eshar, the Weizmann Institute, Israel were grown in liquid brain heart infusion (BHI) media for 18 hours at 37° C. with continuous shaking.
Phototoxicity experiments: The standard experimental design consisted of four discrete steps: (i) Pre-incubation: Fresh bacterial suspensions (200 μl) in 0.1M carbonate buffer, pH 8.6, were incubated with the test sensitizer and/or inhibitor at the indicated concentrations for 1 hour in the dark. (ii) Wash: Unbound sensitizer was removed by washing and resuspension in the same buffer (x3). (iii) Illumination: The bacterial suspensions were exposed to light (140 mW/cm^2, λ>550 nm) for 5 min. (iv) Assessment of survival: Samples of the bacterial suspensions (30 μl) were cultured in 2 ml of BHI liquid media at 37° C. (shaking) for 2 hr. Bacterial density was monitored by turbidity measurements at λ=660 nm, taking OD660=1 for 5×10^7 bacteria/ml. Each experiment consisted of one experimental and three control groups:
Experimental group: Bacteria were subjected to complete treatment (varying one experimental factor). Light control: irradiated bacteria, not treated with sensitizer. Dark control: non-irradiated bacteria, treated with sensitizer in the dark. Untreated control: values used for calculation of 100% survival.

[3] = in vivo; cited from earlier work
C57Bl mice = assay: Toxicity of serine conjugates in mice in the absence of irradiation; type: in vivo, mouse; settings: injections of up to 40 mg/kg body weight, up to 14 days, no irradiation
Description: (d) Toxicity of the Chl and Bchl-serine conjugates Chla-L-Ser-OMe and Bchla-L-Ser-OMe in C57Bl mice under normal housing conditions in the absence of irradiation was estimated by injection of the compound dissolved in 10% ethanol/PBS. Control mice were injected with the vehicle only. […] This dose of drug was thus far the highest used and LD50 vs. EC50 of treatment (margins of therapeutic index) have yet to be determined.

MR2 melanoma tumors = assay: Photodynamic treatment of melanoma tumor implanted in CD1 nude mouse, MRI follow up; type: in vivo
Description: (a) Tumor implantation: M2R cells are routinely maintained as monolayers. The cells are scraped with the aid of a rubber policeman and suspended in normal saline, 1×10^6 cells/0.1 ml are injected subcutaneously on the flank or batch of C57Bl or CD1 nude male mice. […] A similar procedure is used in nude mice in which either mouse M2R or human (FO/1, MRI/H/221, HS695T amelanotic melanoma or SK/MEL/28) melanoma tumors are implanted.

SMILES: CC[C@H]1c2cc3[n-]c4c(c3C)C(=O)[C@H](C(=O)OC)c4c3nc(cc4[n-]c(cc(n2)[C@@H]1C)c(C(C)=O)c4C)[C@@H](C)[C@@H]3CCC(=O)OC[C@H](N)C(=O)OC.[Mg+2] [Bchla-L-Ser-OMe, L-seryl Methyl Ester Bacteriochlorophyllide a]
- water solubility [1]: water soluble
- LD50 (phototoxicity in cell cultures) (cell cultures): 50 nM
- concentration of maximal phototoxicity [2]: 0.5 µM
- phototoxicity LD50 ([2]; as described in Example 17): 70 nM
- dark toxicity ([2]; no light, up to highest tested concentration (10 μM)): no detectable dark toxicity
- clearance from the animal body [3]: 16 h
- effect on behavior and well being of mice (C57Bl mice): no noticeable effect on the behavior and well being of the mice
- tumor by MRI after first treatment (MR2 melanoma tumors; 50-150 μg into and around tumor, halogen light 60 min, 84 h later): essentially eliminated
- tumor recurrence by MRI after second treatment (MR2 melanoma tumors; after a second treatment (2-3 weeks later)): no recurrence
- tumor recurrence by MRI after first treatment (MR2 melanoma tumors; two weeks after first treatment): small recurrence; also recorded: some recurrence
